Source: patent publication US11472846B2, “Compositions and methods for treating diseases by inhibiting exosome release” (priority 2016, dated 2022)
Entries after “also recorded” stand apart in the source; their conditions may differ. Where two headings read alike, the source gives them in different places.

Legend:
Type in all cases: cell-based, human
[1] = system: non-tumorigenic MCF-10A cells; test: MTT proliferation assay, MCF-10A; settings: 24 hours, up to 1120 nM/mL
Method: (§1) 1-3. Viability and proliferation. Human breast cancer cell lines were seeded into 96-well plates (5000 cells/well) and treated for 24 hours with various concentrations of SMR peptides including PEG-SMRwt-Clu, PEG-SMRwt and PEG-SMRmut to determine IC50 (inhibition concentration). Cell proliferation was determined using the MTT assay (Molecular Devices, Sunnyvale, Calif.). Control experiments were performed with MTT treated cells alone and untreated cells, and on this basis, the incubation times of 24 hr and 48 hr were used for an MTT assay of peptide-treated cells (Stockerta JC. et al., 2012 and Riss TL. et al., 2015).
7-4. Cell proliferation and cytotoxicity assay. Human breast cancer cell lines MCF-7, MDAMB-231, and leukemia K562 cells, and non-tumorigenic MCF-10A cells are seeded into 96-well plates (5000 cells/well) and treated for 24 hours with 0-1120 nM SMRwt-CPP or SMRmut-CPP (FIG. 10). Cell proliferation was determined using the MTT [3-(4,5-dimethylthiazol-2-yl)-2,5-diphenyltetrazolium bromide] dye assay by SpectraMax M5 Fluorescence Plate Reader (Molecular Devices. Sunnyvale, Calif.). Cell viability was estimated by the conversion of yellow MTT by mitochondrial dehydrogenases of living cells to purple formazon (MTT assay). […] Statistical significance of results was determined from three independent experiments including triplet or quadruplet sets in each experiment.

[2] = system: MCF-7 breast cancer cells; test: Propidium iodide cell cycle analysis (Cellometer), MCF-7; settings: MCF-7 cells, 48 hours, 1.12 μM/mL peptide
Method: (§2) 1-4. Cell cycle analysis. MCF-7 and MDA-MB-231 breast cancer cells were cultured into 6-well plates at 4×10^5 cells per well and treated with either paclitaxel and cisplatin or combined with PEG-SMRwt-CLU peptide for 24 and 48 hours. Cell cycle analysis was performed using a propidium iodide cell cycle assay and measured using a Cellometer (Nexcelom, MA). […] Breast cancer cells were seeded into 96-well plates at 5×10^3 cells/ml, and treated with either 1.6 μM//mL of paclitaxel, or 3 mg/mL cisplatin, 1.12 μM/mL PEG-SMRwt-CLU peptide, SMR peptide combined with paclitaxel or with cisplatin (MCF-7 cells). Alternatively 1.6 μM/mL paclitaxel or 2 mg/mL cisplatin or 0.28 μM/mL of PEG-SMR-CLU peptide, or the peptide combined with each of these drugs was used for MDA-MB-231 cells. The concentrations for cisplatin and paclitaxel were experimentally determined IC50 dosages for the different cell types (data not shown). At the end of the 24 hr or 48 hr incubations, the cells were assessed by the Cellometry imaging cytometry assay.
(§3) All above steps were done on MCF-7 and MDA-MB-231 cells separately. […]

[3] = system: MDA-MB-231 breast cancer cells; test: MTT proliferation assay, MDA-MB-231; settings: MDA-MB-231 cells, 24 hours
Method: as §1
7-4. Cell proliferation and cytotoxicity assay. Human breast cancer cell lines MCF-7, MDAMB-231, and leukemia K562 cells, and non-tumorigenic MCF-10A cells are seeded into 96-well plates (5000 cells/well) and treated for 24 hours with 0-1120 nM SMRwt-CPP or SMRmut-CPP (FIG. 10). Cell proliferation was determined using the MTT [3-(4,5-dimethylthiazol-2-yl)-2,5-diphenyltetrazolium bromide] dye assay by SpectraMax M5 Fluorescence Plate Reader (Molecular Devices. Sunnyvale, Calif.). Cell viability was estimated by the conversion of yellow MTT by mitochondrial dehydrogenases of living cells to purple formazon (MTT assay). Control experiments were performed with cells treated or untreated with MTT, and on this basis, an incubation time of 24 hours was used for MTT assays of peptide-treated cells (Huang, M. B., et al., Oncotarget, 2017. 8(7): pp. 11302-11315.). Statistical significance of results was determined from three independent experiments including triplet or quadruplet sets in each experiment.

[4] = system: MDA-MB-231 breast cancer cells; test: Propidium iodide cell cycle analysis (Cellometer), MDA-MB-231; settings: MDA-MB-231 cells, 48 hours, 0.28 μM/mL peptide
Method: as §2, §3

[5] = system: MCF-7 breast cancer cells; test: Annexin V-FITC/PI apoptosis assay, MCF-7; settings: MCF-7 cells, 48 hours
Method: 1-5. Assessment of apoptosis. Breast cancer cells were seeded into 6-well plates at 4×10^5 cells per well and treated with either paclitaxel or cisplatin or various concentrations of SMR peptides for 24 hours or different time point. SMR as described above. Apoptosis was determined the using Annexin V-FITC detection kit (Nexcelom, MA) and visualized by Cellometer imaging cytometry.

[6] = system: MDA-MB-231 breast cancer cells; test: Exosome nanoparticle tracking analysis (NanoSight NTA), MDA-MB-231; settings: MDA-MB-231 cells treated 48 hr; control 4.7×10^9 particles/ml
Method: 1-6. Exosome isolation and purification. Exosomes were isolated from breast cancer cells by differential centrifugation as previously described (Ali SA. et al., 2010). Untreated tumor cells were used as a control. Briefly, the above treated and untreated cell culture supernatants were centrifuged at 400×g for 10 minutes. The supernatants were transferred to a clear tube and centrifuged at 10,000×g for 30 minutes. The supernatants from the second spin were ultracentrifuged at 200,000×g for 2 hours to pellet exosomes. Finally, the exosome pellets were re-suspended with PBS and stored at 4° C. until used for analysis.
1-8. Exosome nanoparticle tracking analysis (NTA). Analysis of absolute size distribution of exosomes was performed using NanoSight LM10 with NTA2.3 (NanoSight Ltd., Minton Park, UK). Particles were automatically tracked and sized based on Brownian motion and the diffusion coefficient. After isolation, the untreated and treated breast cancer exosomes were re-suspended in 0.5 mL of PBS. Control medium and filtered PBS were used as controls in this technique. The NTA measurement conditions were: temperature=21.0+/−0.5° C.; viscosity=0.99+/−0.01 cP; frames per second=25; measurement time=30 s. The detection threshold was similar in all samples. Two recordings were performed for each sample.
7-11. Exosome nanoparticle tracking analysis (NTA). […]

VGFPVAAVGFPVGRKKRRQRRRPPQ [SMRwt-CPP]
effect on proliferation (in words) [1]: not affected; also recorded: no effect

NXNVGFPVAAVGFPVHPLSKHPYWSQP (SEQ ID NO: 37) [PEG-SMRwt-Clu]
cell cycle effect [2]: induced cell cycle arrest | IC50 ([3]; MTT, read-out: 50% inhibition of cell growth): 280 nM | IC50 ([3]; read-out: SMR at IC50 concentration): 280 nM | cell cycle effect [4]: induced cell cycle arrest | effect on paclitaxel/cisplatin-induced apoptosis [5]: increased the level of drug-induced apoptosis | number of exosome particles (NTA) [6]: 6.8×10^8 particles/ml
